Data from patent US12606533B2, “3-phenylpropylamine derivative” (DAIICHI SANKYO COMPANY, LIMITED, priority 2023, dated 2026).

What was measured:
SF-1 = target: T1, SF-1 (Homo sapiens, UniProt Q13285); experiment: SF1 degradation induction in NCI-H295R SF-1-HiBiT cells (HiBiT DC50); type: cell-based; conditions: 24 hr, concentration that induces 50% degradation of SF-1
T1 construct: NCI-H295R SF-1-HiBiT cells with HiBiT tag knocked in at the endogenous SF1 locus; host or cells: NCI-H295R SF-1-HiBiT (knock-in at endogenous locus)
How it was run: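 NCI-H295R cells carrying HiBiT-tagged SF-1, plated and grown 24 hr, then exposed to serially diluted compounds for 24 hr at 37° C. Remaining SF-1 read by lytic HiBiT luminescence; degradation rate from treated vs compound-free signal, DC50 as concentration giving 50% degradation.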

NCI-H295R cells = experiment: Proliferation inhibitory action on NCI-H295R (CellTiter-Glo, 7 days); type: cell-based, human; conditions: Homo sapiens, NCI-H295R, 168 h
How it was run: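 Compounds serially diluted in DMSO; cells seeded at 2×10^3 cells/well and cultured 7 days at 37° C, 5% CO2. CellTiter-Glo 2.0 luminescence read at day 0 and day 7; proliferation rate derived from compound-addition-day signal, untreated day-7 signal and treated day-7 signal.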

SMILES	DC50 (SF-1) [nM]	GI50 (NCI-H295R cells) [nM]
COc1ccc(C2(CCN(Cc3ccc(OC4CCN(CC(=O)Nc5cccc6c5n(C)c(=O)n6C5CCC(=O)NC5=O)CC4)cc3)CC(C)(C)C(F)(F)F)CCC(F)(F)CC2)cc1 (stereo not drawn) [Example AB6, 2-[4-(4-{[{2-[4,4-Difluoro-1-(4-methoxyphenyl)cyclohexyl]ethyl}(3,3,3-trifluoro-2,2-dimethylpropyl)amino]methyl}phenoxy)piperidin-1-yl]-N-[1-(2,6-dioxopiperidin-3-yl)-3-methyl-2-oxo-2,3-dihydro-1H-benzimidazol-4-yl]acetamide]	29	165
COc1ccc(C2(CCN(Cc3ccc(OC4CCN(CC(=O)Nc5cccc6c5n(C)c(=O)n6C5CCC(=O)NC5=O)CC4)cc3)CC(C)(C)C(F)(F)F)CCOCC2)cc1 (stereo not drawn) [Example AC6, N-[1-(2,6-Dioxopiperidin-3-yl)-3-methyl-2-oxo-2,3-dihydro-1H-benzimidazol-4-yl]-2-[4-(4-{[{2-[4-(4-methoxyphenyl)tetrahydro-2H-pyran-4-yl]ethyl}(3,3,3-trifluoro-2,2-dimethylpropyl)amino]methyl}phenoxy)piperidin-1-yl]acetamide]	26	73
COc1ccc([C@]2(CCN(Cc3ccc(OC4CC5(CCN(CC(=O)Nc6cccc7c6n(C)c(=O)n7C6CCC(=O)NC6=O)CC5)C4)cc3)CC(C)(C)C(F)(F)F)CCOC(C)(C)C2)cc1 (stereo partly drawn) [Example AD1, N-[1-(2,6-Dioxopiperidin-3-yl)-3-methyl-2-oxo-2,3-dihydro-1H-benzimidazol-4-yl]-2-[2-(4-{[{2-[(4R)-4-(4-methoxyphenyl)-2,2-dimethyltetrahydro-2H-pyran-4-yl]ethyl}(3,3,3-trifluoro-2,2-dimethylpropyl)amino]methyl}phenoxy)-7-azaspiro[3.5]nonan-7-yl]acetamide]	6.9	47
COc1ccc([C@]2(CCN(Cc3ccc(OC4CC5(CCN(CC(=O)Nc6ccc7c(c6)n(C)c(=O)n7C6CCC(=O)NC6=O)CC5)C4)cc3)CC(C)(C)C(F)(F)F)CCOC(C)(C)C2)cc1 (stereo partly drawn) [Example AE1, N-[1-(2,6-Dioxopiperidin-3-yl)-3-methyl-2-oxo-2,3-dihydro-1H-benzimidazol-5-yl]-2-[2-(4-{[{2-[(4R)-4-(4-methoxyphenyl)-2,2-dimethyltetrahydro-2H-pyran-4-yl]ethyl}(3,3,3-trifluoro-2,2-dimethylpropyl)amino]methyl}phenoxy)-7-azaspiro[3.5]nonan-7-yl]acetamide]	8.5	40
COc1ccc([C@]2(CCN(Cc3ccc(OC4CC5(CCN(CC(=O)Nc6ccc7c(c6)CN(C6CCC(=O)NC6=O)C7=O)CC5)C4)cc3)CC(C)(C)C(F)(F)F)CCOC(C)(C)C2)cc1 (stereo partly drawn) [Example AF1, N-[2-(2,6-Dioxopiperidin-3-yl)-1-oxo-2,3-dihydro-1H-isoindol-5-yl]-2-[2-(4-{[{2-[(4R)-4-(4-methoxyphenyl)-2,2-dimethyltetrahydro-2H-pyran-4-yl]ethyl}(3,3,3-trifluoro-2,2-dimethylpropyl)amino]methyl}phenoxy)-7-azaspiro[3.5]nonan-7-yl]acetamide]	6.9	121
COc1ccc([C@]2(CCN(Cc3ccc(C4=CCC(CN5CCN(C(=O)c6ccc7c(c6)CN(C6CCC(=O)NC6=O)C7=O)CC5)CC4)cc3)CC(C)(C)C(F)(F)F)CCOC(C)(C)C2)cc1 (stereo partly drawn) [Example AG7, 3-[5-({4-[(4′-{[{2-[(4R)-4-(4-Methoxyphenyl)-2,2-dimethyltetrahydro-2H-pyran-4-yl]ethyl}(3,3,3-trifluoro-2,2-dimethylpropyl)amino]methyl}-2,3,4,5-tetrahydro[biphenyl]-4-yl)methyl]piperazin-1-yl}carbonyl)-1-oxo-1,3-dihydro-2H-isoindol-2-yl]piperidine-2,6-dione]	8.7	147
COc1ccc([C@]2(CCN(Cc3ccc(C4=CCC(CN5CCN(C(=O)c6cccc7c6n(C)c(=O)n7C6CCC(=O)NC6=O)CC5)CC4)cc3)CC(C)(C)C(F)(F)F)CCOC(C)(C)C2)cc1 (stereo partly drawn) [Example AH4, 3-[4-({4-[(4′-{[{2-[(4R)-4-(4-Methoxyphenyl)-2,2-dimethyltetrahydro-2H-pyran-4-yl]ethyl}(3,3,3-trifluoro-2,2-dimethylpropyl)amino]methyl}-2,3,4,5-tetrahydro[biphenyl]-4-yl)methyl]piperazin-1-yl}carbonyl)-3-methyl-2-oxo-2,3-dihydro-1H-benzimidazol-1-yl]piperidine-2,6-dione]	5.7	123
COc1ccc([C@]2(CCN(Cc3ccc([C@H]4CC[C@@H](CN5CCN(C(=O)c6ccc7c(c6)n(C)c(=O)n7C6CCC(=O)NC6=O)CC5)CC4)cc3)CC(C)(C)C(F)(F)F)CCOC(C)(C)C2)cc1 (stereo partly drawn) [Example AI11, 3-{5-[(4-{[Cis-4-(4-{[{2-[(4R)-4-(4-methoxyphenyl)-2,2-dimethyltetrahydro-2H-pyran-4-yl]ethyl}(3,3,3-trifluoro-2,2-dimethylpropyl)amino]methyl}phenyl)cyclohexyl]methyl}piperazin-1-yl)carbonyl]-3-methyl-2-oxo-2,3-dihydro-1H-benzimidazol-1-yl}piperidine-2,6-dione]	6.2	90
COc1ccc([C@]2(CCN(Cc3ccc(OC4CC5(CCN(CC(=O)N6CCc7ccc8c(c7C6)n(C)c(=O)n8C6CCC(=O)NC6=O)CC5)C4)cc3)CC(C)(C)C(F)(F)F)CCOC(C)(C)C2)cc1 (stereo partly drawn) [Example AK10, 3-(8-{[2-(4-{[{2-[(4R)-4-(4-Methoxyphenyl)-2,2-dimethyltetrahydro-2H-pyran-4-yl]ethyl}(3,3,3-trifluoro-2,2-dimethylpropyl)amino]methyl}phenoxy)-7-azaspiro[3.5]nonan-7-yl]acetyl}-1-methyl-2-oxo-1,2,6,7,8,9-hexahydro-3H-imidazo[4,5-h]isoquinolin-3-yl)piperidine-2,6-dione]	4.9	82
COc1ccc([C@]2(CCN(Cc3ccc(OC4CC5(CCN(CC(=O)N6Cc7ccc8c(c7C6)n(C)c(=O)n8C6CCC(=O)NC6=O)CC5)C4)cc3)CC(C)(C)C(F)(F)F)CCOC(C)(C)C2)cc1 (stereo partly drawn) [Example AL4, 3-[7-{[2-(4-{[{2-[(4R)-4-(4-Methoxyphenyl)-2,2-dimethyltetrahydro-2H-pyran-4-yl]ethyl}(3,3,3-trifluoro-2,2-dimethylpropyl)amino]methyl}phenoxy)-7-azaspiro[3.5]nonan-7-yl]acetyl}-1-methyl-2-oxo-1,6,7,8-tetrahydroimidazo[4,5-e]isoindole-3(2H)-yl]piperidine-2,6-dione]	4.5	83
COc1ccc([C@]2(CCN(Cc3ccc(C4=CCC(CC(=O)NCCNc5ccc6c(c5)n(C)c(=O)n6C5CCC(=O)NC5=O)CC4)cc3)CC(C)(C)C(F)(F)F)CCOC(C)(C)C2)cc1 (stereo partly drawn) [Example Y6, N-(2-{[1-(2,6-Dioxopiperidin-3-yl)-3-methyl-2-oxo-2,3-dihydro-1H-benzimidazol-5-yl]amino}ethyl)-2-(4′-{[{2-[(4R)-4-(4-methoxyphenyl)-2,2-dimethyltetrahydro-2H-pyran-4-yl]ethyl}(3,3,3-trifluoro-2,2-dimethylpropyl)amino]methyl}-2,3,4,5-tetrahydro[biphenyl]-4-yl)acetamide]	12	199
COc1ccc([C@]2(CCN(Cc3ccc(OC4CCN(CC(=O)Nc5cccc6c5n(C)c(=O)n6C5CCC(=O)NC5=O)CC4)cc3)CC(C)(C)C(F)(F)F)CCOC(C)(C)C2)cc1 (stereo partly drawn) [Example Z8, N-[1-(2,6-Dioxopiperidin-3-yl)-3-methyl-2-oxo-2,3-dihydro-1H-benzimidazol-4-yl]-2-[4-(4-{[{2-[(4R)-4-(4-methoxyphenyl)-2,2-dimethyltetrahydro-2H-pyran-4-yl]ethyl)(3,3,3-trifluoro-2,2-dimethylpropyl)amino]methyl}phenoxy)piperidin-1-yl]acetamide]	10	43
